Assay results from US5393869A, “Parathyroid hormone derivatives” (Takeda Chemical Industries, Ltd., priority 1990, dated 1995).
No end group written: not given here.

Molecular target: T1, PTH receptor (Mus musculus, UniProt P41593)
T1 construct: a mouse cranial bone-derived osteoblast-like cell strain, MC3T3-EI cells, cultivated on a 96-well multiplate; endogenous in cells; host or cells: MC3T3-E1 mouse osteoblast-like cells
T1 sequence (P41593 27-591): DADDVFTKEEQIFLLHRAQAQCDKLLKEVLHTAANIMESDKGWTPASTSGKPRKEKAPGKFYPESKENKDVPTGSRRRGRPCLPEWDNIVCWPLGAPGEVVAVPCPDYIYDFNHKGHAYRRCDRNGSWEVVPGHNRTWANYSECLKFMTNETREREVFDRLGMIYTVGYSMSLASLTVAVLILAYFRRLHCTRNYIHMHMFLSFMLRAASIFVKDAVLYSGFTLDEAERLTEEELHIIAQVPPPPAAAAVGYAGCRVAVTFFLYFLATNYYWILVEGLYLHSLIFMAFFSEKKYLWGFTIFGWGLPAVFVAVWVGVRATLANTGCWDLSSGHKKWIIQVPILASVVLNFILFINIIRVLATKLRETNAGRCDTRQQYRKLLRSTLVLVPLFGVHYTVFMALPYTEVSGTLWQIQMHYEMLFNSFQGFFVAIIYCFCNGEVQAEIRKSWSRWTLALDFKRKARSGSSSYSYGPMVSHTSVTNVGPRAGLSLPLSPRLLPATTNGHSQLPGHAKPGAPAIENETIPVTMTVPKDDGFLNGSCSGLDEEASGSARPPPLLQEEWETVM
Experiment: cAMP production by PTH (1-34) analogues in MC3T3-EI osteoblast-like cells
Type: cell-based
Conditions: cAMP production, 0.01-100 nM analogue, room temperature 30 minutes, hPTH(1-34) = 1.00
Procedure: The biological activity of the peptide analogues was evaluated by a modified version of the method reported by Shigeno et al. in The Journal of Biological Chemistry 263, 18369-18377 (1988). A culture solution (Hank's solution, containing 20 mM N-2-hydroxyethylpiperazine-N'-2-ethanesulfonic acid (HEPES), 0.1% bovine serum albumin and 0.5 mM isobutylmethyl-xanthine) containing 0.01, 0.1, 1, 10 or 100 nM analogue was added in an amount of 100 μto a mouse cranial bone-derived osteoblast-like cell strain, MC3T3-EI cells, cultivated on a 96-well multiplate (Nunclon, Nunc), followed by reaction at room temperature for 30 minutes. After addition of 100 μof 0.2N hydrochloric acid, the mixture was immersed in boiling water for 2.5 minutes, and cyclic adenosine monophosphate (cAMP) produced by a PTH receptor was extracted from the cells. The total cAMP in the culture solution and the cells was assayed using a commercial radioimmunoassay kit (cyclic AMP [^125 I] kit "Du Pont-Daiichi", Daiichi Kagaku Yakuhin).

Row | Compound | Biological Activity (Represented by Relative Activity to hPTH(1-34))
1 | CC[C@H](C)[C@H](NC(=O)[C@H](CCC(=O)O)NC(=O)[C@H](CO)NC(=O)[C@@H](NC(=O)[C@@H](N)CO)C(C)C)C(=O)N[C@@H](CCC(N)=O)C(=O)N[C@@H](CC(C)C)C(=O)N[C@@H](CCSC)C(=O)N[C@@H](Cc1c[nH]cn1)C(=O)N[C@@H](CC(N)=O)C(=O)N[C@@H](Cc1ccccc1)C(=O)NCC(=O)N[C@@H](CCCCN)C(=O)N[C@@H](Cc1c[nH]cn1)C(=O)N[C@@H](CC(C)C)C(=O)N[C@@H](CC(N)=O)C(=O)N[C@@H](CO)C(=O)N[C@@H](CCSC)C(=O)N[C@@H](CCC(=O)O)C(=O)N[C@@H](CCCNC(=N)N)C(=O)N[C@H](C(=O)N[C@@H](CCC(=O)O)C(=O)N[C@@H](Cc1c[nH]c2ccccc12)C(=O)N[C@@H](CC(C)C)C(=O)N[C@@H](CCCNC(=N)N)C(=O)N[C@@H](CCCCN)C(=O)N[C@@H](CCCCN)C(=O)N[C@@H](CC(C)C)C(=O)N[C@@H](CCC(N)=O)C(=O)N[C@@H](CC(=O)O)C(=O)N[C@H](C(=O)N[C@@H](Cc1c[nH]cn1)C(=O)N[C@@H](CC(N)=O)C(=O)N[C@@H](Cc1ccccc1)C(=O)O)C(C)C)C(C)C [[Phe^11] hPTH (1-34), (Phe^11)hPTH(1-34)] | 1.1
2 | SVSEIQLLHNFGKHLNSLERVEWLRKKLQDVHNF-NH2 [[Leu^8, Phe^11, Leu^18] hPTH (1-34)NH2, (Leu^8, Phe^11,Leu^18)hPTH(1-34)NH2] | 0.9
3 | CC[C@H](C)[C@H](NC(=O)[C@H](CCC(=O)O)NC(=O)[C@H](CO)NC(=O)[C@@H](NC(=O)[C@@H](N)CO)C(C)C)C(=O)N[C@@H](CCC(N)=O)C(=O)N[C@@H](CC(C)C)C(=O)N[C@@H](CCSC)C(=O)N[C@@H](Cc1c[nH]cn1)C(=O)N[C@@H](CC(N)=O)C(=O)N[C@@H](CC(C)C)C(=O)N[C@H](Cc1ccc2ccccc2c1)C(=O)N[C@@H](CCCCN)C(=O)N[C@@H](Cc1c[nH]cn1)C(=O)N[C@@H](CC(C)C)C(=O)N[C@@H](CC(N)=O)C(=O)N[C@@H](CO)C(=O)N[C@@H](CCSC)C(=O)N[C@@H](CCC(=O)O)C(=O)N[C@@H](CCCNC(=N)N)C(=O)N[C@H](C(=O)N[C@@H](CCC(=O)O)C(=O)N[C@@H](Cc1c[nH]c2ccccc12)C(=O)N[C@@H](CC(C)C)C(=O)N[C@@H](CCCNC(=N)N)C(=O)N[C@@H](CCCCN)C(=O)N[C@@H](CCCCN)C(=O)N[C@@H](CC(C)C)C(=O)N[C@@H](CCC(N)=O)C(=O)N[C@@H](CC(=O)O)C(=O)N[C@H](C(=O)N[C@@H](Cc1c[nH]cn1)C(=O)N[C@@H](CC(N)=O)C(=O)N[C@@H](Cc1ccccc1)C(N)=O)C(C)C)C(C)C [(3-(2-naphthyl)-D-Ala^12)hPTH(1-34)NH2] | 0.9
4 | CC[C@H](C)[C@H](NC(=O)[C@H](CCC(=O)O)NC(=O)[C@H](CO)NC(=O)[C@@H](NC(=O)[C@@H](N)CO)C(C)C)C(=O)N[C@@H](CCC(N)=O)C(=O)N[C@@H](CC(C)C)C(=O)N[C@@H](CCSC)C(=O)N[C@@H](Cc1c[nH]cn1)C(=O)N[C@@H](CC(N)=O)C(=O)N[C@@H](CCCCN)C(=O)NCC(=O)N[C@@H](CCCCN)C(=O)N[C@@H](Cc1c[nH]cn1)C(=O)N[C@@H](CC(C)C)C(=O)N[C@@H](CC(N)=O)C(=O)N[C@@H](CO)C(=O)N[C@@H](CCSC)C(=O)N[C@@H](CCC(=O)O)C(=O)N[C@@H](CCCNC(=N)N)C(=O)N[C@H](C(=O)N[C@@H](CCC(=O)O)C(=O)N[C@@H](Cc1c[nH]c2ccccc12)C(=O)N[C@@H](CC(C)C)C(=O)N[C@@H](CCCNC(=N)N)C(=O)N[C@@H](CCCCN)C(=O)N[C@@H](CCCCN)C(=O)N[C@@H](CC(C)C)C(=O)N[C@@H](CCC(N)=O)C(=O)N[C@@H](CC(=O)O)C(=O)N[C@H](C(=O)N[C@@H](Cc1c[nH]cn1)C(=O)N[C@@H](CC(N)=O)C(=O)N[C@@H](Cc1ccccc1)C(N)=O)C(C)C)C(C)C [[Lys^11] hPTH (1-34)NH2, (Lys^11)hPTH(1-34)NH2] | 1.1

Next, values leading:

Row | Biological Activity (Represented by Relative Activity to hPTH(1-34)) | Compound
5 | 0.5 | CC[C@H](C)[C@H](NC(=O)[C@H](CCC(=O)O)NC(=O)[C@H](CO)NC(=O)[C@@H](NC(=O)[C@@H](N)CO)C(C)C)C(=O)N[C@@H](CCC(N)=O)C(=O)N[C@@H](CC(C)C)C(=O)N[C@@H](CCSC)C(=O)N[C@@H](Cc1c[nH]cn1)C(=O)N[C@@H](CC(N)=O)C(=O)N[C@@H](CC(C)C)C(=O)N[C@H](CC(C)C)C(=O)N[C@@H](CCCCN)C(=O)N[C@@H](Cc1c[nH]cn1)C(=O)N[C@@H](CC(C)C)C(=O)N[C@@H](CC(N)=O)C(=O)N[C@@H](CO)C(=O)N[C@@H](CCSC)C(=O)N[C@@H](CCC(=O)O)C(=O)N[C@@H](CCCNC(=N)N)C(=O)N[C@H](C(=O)N[C@@H](CCC(=O)O)C(=O)N[C@@H](Cc1c[nH]c2ccccc12)C(=O)N[C@@H](CC(C)C)C(=O)N[C@@H](CCCNC(=N)N)C(=O)N[C@@H](CCCCN)C(=O)N[C@@H](CCCCN)C(=O)N[C@@H](CC(C)C)C(=O)N[C@@H](CCC(N)=O)C(=O)N[C@@H](CC(=O)O)C(=O)N[C@H](C(=O)N[C@@H](Cc1c[nH]cn1)C(=O)N[C@@H](CC(N)=O)C(=O)N[C@@H](Cc1ccccc1)C(N)=O)C(C)C)C(C)C [[D-Leu^12] hPTH (1-34)NH2, (D-Leu^12)hPTH(1-34)NH2]
6 | 0.8 | CC[C@H](C)[C@H](NC(=O)[C@H](CCC(=O)O)NC(=O)[C@H](CO)NC(=O)[C@@H](NC(=O)[C@@H](N)CO)C(C)C)C(=O)N[C@@H](CCC(N)=O)C(=O)N[C@@H](CC(C)C)C(=O)N[C@@H](CCSC)C(=O)N[C@@H](Cc1c[nH]cn1)C(=O)N[C@@H](CC(N)=O)C(=O)N[C@@H](CO)C(=O)NCC(=O)N[C@@H](CCCCN)C(=O)N[C@@H](Cc1c[nH]cn1)C(=O)N[C@@H](CC(C)C)C(=O)N[C@@H](CC(N)=O)C(=O)N[C@@H](CO)C(=O)N[C@@H](CCSC)C(=O)N[C@@H](CCC(=O)O)C(=O)N[C@@H](CCCNC(=N)N)C(=O)N[C@H](C(=O)N[C@@H](CCC(=O)O)C(=O)N[C@@H](Cc1c[nH]c2ccccc12)C(=O)N[C@@H](CC(C)C)C(=O)N[C@@H](CCCNC(=N)N)C(=O)N[C@@H](CCCCN)C(=O)N[C@@H](CCCCN)C(=O)N[C@@H](CC(C)C)C(=O)N[C@@H](CCC(N)=O)C(=O)N[C@@H](CC(=O)O)C(=O)N[C@H](C(=O)N[C@@H](Cc1c[nH]cn1)C(=O)N[C@@H](CC(N)=O)C(=O)N[C@@H](Cc1ccccc1)C(N)=O)C(C)C)C(C)C [[Ser^11] hPTH (1-34)NH2, (Ser^11)hPTH(1-34)NH2]
7 | 1.7 | CC[C@H](C)[C@H](NC(=O)[C@H](CCC(=O)O)NC(=O)[C@H](CO)NC(=O)[C@@H](NC(=O)[C@@H](N)CO)C(C)C)C(=O)N[C@@H](CCC(N)=O)C(=O)N[C@@H](CC(C)C)C(=O)N[C@@H](CCSC)C(=O)N[C@@H](Cc1c[nH]cn1)C(=O)N[C@@H](CC(N)=O)C(=O)N[C@@H](Cc1ccc2ccccc2c1)C(=O)NCC(=O)N[C@@H](CCCCN)C(=O)N[C@@H](Cc1c[nH]cn1)C(=O)N[C@@H](CC(C)C)C(=O)N[C@@H](CC(N)=O)C(=O)N[C@@H](CO)C(=O)N[C@@H](CCSC)C(=O)N[C@@H](CCC(=O)O)C(=O)N[C@@H](CCCNC(=N)N)C(=O)N[C@H](C(=O)N[C@@H](CCC(=O)O)C(=O)N[C@@H](Cc1c[nH]c2ccccc12)C(=O)N[C@@H](CC(C)C)C(=O)N[C@@H](CCCNC(=N)N)C(=O)N[C@@H](CCCCN)C(=O)N[C@@H](CCCCN)C(=O)N[C@@H](CC(C)C)C(=O)N[C@@H](CCC(N)=O)C(=O)N[C@@H](CC(=O)O)C(=O)N[C@H](C(=O)N[C@@H](Cc1c[nH]cn1)C(=O)N[C@@H](CC(N)=O)C(=O)N[C@@H](Cc1ccccc1)C(N)=O)C(C)C)C(C)C [[3-(2-naphthyl)-Ala^11] hPTH (1-34)NH2]
8 | 0.8 | CC[C@H](C)[C@H](NC(=O)[C@H](CCC(=O)O)NC(=O)[C@H](CO)NC(=O)[C@@H](NC(=O)[C@@H](N)CO)C(C)C)C(=O)N[C@@H](CCC(N)=O)C(=O)N[C@@H](CC(C)C)C(=O)N[C@@H](CCSC)C(=O)N[C@@H](Cc1c[nH]cn1)C(=O)N[C@@H](CC(N)=O)C(=O)N[C@@H](CC(C)C)C(=O)N[C@H](CO)C(=O)N[C@@H](CCCCN)C(=O)N[C@@H](Cc1c[nH]cn1)C(=O)N[C@@H](CC(C)C)C(=O)N[C@@H](CC(N)=O)C(=O)N[C@@H](CO)C(=O)N[C@@H](CCSC)C(=O)N[C@@H](CCC(=O)O)C(=O)N[C@@H](CCCNC(=N)N)C(=O)N[C@H](C(=O)N[C@@H](CCC(=O)O)C(=O)N[C@@H](Cc1c[nH]c2ccccc12)C(=O)N[C@@H](CC(C)C)C(=O)N[C@@H](CCCNC(=N)N)C(=O)N[C@@H](CCCCN)C(=O)N[C@@H](CCCCN)C(=O)N[C@@H](CC(C)C)C(=O)N[C@@H](CCC(N)=O)C(=O)N[C@@H](CC(=O)O)C(=O)N[C@H](C(=O)N[C@@H](Cc1c[nH]cn1)C(=O)N[C@@H](CC(N)=O)C(=O)N[C@@H](Cc1ccccc1)C(N)=O)C(C)C)C(C)C [[D-Ser^12] hPTH (1-34)NH2, (D-Ser^12)hPTH(1-34)NH2]
